Source: patent US8481732B2 (Incyte Corporation, priority 2009, dated 2013)

The compounds below were run against T1, histamine H4 receptor (Homo sapiens, UniProt Q9H3N8) (assay: H4 Membrane Binding Assay (3H-Histamine displacement)). Details: membranes of recombinant HEK293SFM cells, 10 nM 3H-Histamine, 1.5 hr at room temperature.
T1 construct: expressed in transfected cells; host or cells: HEK293SFM cells (membrane preparation)
Summary of the method: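 Radioligand is [3H]-histamine; 1000× unlabeled ligand sets nonspecific binding. Receptor source: membrane pellets from HEK293SFM cells carrying human H4 or other histamine subtypes (human H1–H3, mouse H4), in 50 mM Tris-HCl pH 7.5. Filtration through PEI-treated GF/B filters, then scintillation counting.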

T1 sequence (Q9H3N8 whole entry): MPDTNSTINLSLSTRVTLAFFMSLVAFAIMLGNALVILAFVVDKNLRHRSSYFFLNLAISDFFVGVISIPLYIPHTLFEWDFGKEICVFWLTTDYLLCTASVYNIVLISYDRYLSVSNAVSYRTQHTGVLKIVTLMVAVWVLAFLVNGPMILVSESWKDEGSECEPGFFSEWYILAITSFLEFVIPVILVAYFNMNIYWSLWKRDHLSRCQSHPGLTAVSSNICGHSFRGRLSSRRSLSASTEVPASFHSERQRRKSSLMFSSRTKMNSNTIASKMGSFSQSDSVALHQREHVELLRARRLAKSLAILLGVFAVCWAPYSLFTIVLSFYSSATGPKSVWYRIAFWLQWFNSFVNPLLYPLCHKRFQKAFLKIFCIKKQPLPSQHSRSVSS

SMILES | IC50
CN1CCN(c2cc(-c3ccc4c(c3)CN(C(=O)Nc3ccc(-n5cccn5)cc3)CC4)nc(N)n2)CC1 [Example 93, 7-[2-Amino-6-(4-methylpiperazin-1-yl)pyrimidin-4-yl]-N-[4-(1H-pyrazol-1-yl)phenyl]-3,4-dihydroisoquinoline-2(1H)-carboxamide] | 0.043 µM
COCC1(NC(=O)N2CCc3ccc(-c4cc(N5CCN(C)CC5)nc(N)n4)cc3C2)CCCC1 [Example 94, 7-[2-Amino-6-(4-methylpiperazin-1-yl)pyrimidin-4-yl]-N-[1-(methoxymethyl)cyclopentyl]-3,4-dihydroisoquinoline-2(1H)-carboxamide] | 0.149 µM
CN1CCN(c2cc(-c3ccc4c(c3)CN(C(=O)NC3CCCCC3)CC4)nc(N)n2)CC1 [Example 95, 7-[2-Amino-6-(4-methylpiperazin-1-yl)pyrimidin-4-yl]-N-cyclohexyl-3,4-dihydroisoquinoline-2(1H)-carboxamide] | 0.024 µM
CN1CCN(c2cc(-c3ccc4c(c3)CN(C(=O)Nc3ccc(Oc5ccccc5)cc3)CC4)nc(N)n2)CC1 [Example 96, 7-[2-Amino-6-(4-methylpiperazin-1-yl)pyrimidin-4-yl]-N-(4-phenoxyphenyl)-3,4-dihydroisoquinoline-2(1H)-carboxamide] | 0.052 µM
CC(C)[C@H](C)NC(=O)N1CCc2ccc(-c3cc(N4CCN(C)CC4)nc(N)n3)cc2C1 [Example 97, 7-[2-Amino-6-(4-methylpiperazin-1-yl)pyrimidin-4-yl]-N-[(1S)-1,2-dimethylpropyl]-3,4-dihydroisoquinoline-2(1H)-carboxamide] | 0.073 µM
CC(C)[C@@H](C)NC(=O)N1CCc2ccc(-c3cc(N4CCN(C)CC4)nc(N)n3)cc2C1 [Example 98, 7-[2-Amino-6-(4-methylpiperazin-1-yl)pyrimidin-4-yl]-N-[(1R)-1,2-dimethylpropyl]-3,4-dihydroisoquinoline-2(1H)-carboxamide] | 0.061 µM
CN1CCN(c2cc(-c3ccc4c(c3)CN(C(=O)Nc3ccccc3F)CC4)nc(N)n2)CC1 [Example 99, 7-[2-Amino-6-(4-methylpiperazin-1-yl)pyrimidin-4-yl]-N-(2-fluorophenyl)-3,4-dihydroisoquinoline-2(1H)-carboxamide] | 0.031 µM
CC(C)CC(=O)N1CCc2ccc(-c3cc(N4CCN(C)CC4)nc(N)n3)cc2C1 [Example 100, 4-[2-(3-Methylbutanoyl)-1,2,3,4-tetrahydroisoquinolin-7-yl]-6-(4-methylpiperazin-1-yl)pyrimidin-2-amine] | 0.045 µM
CN1CCN(c2cc(-c3ccc4c(c3)CN(C(=O)CCc3ccccc3)CC4)nc(N)n2)CC1 [Example 101, 4-(4-Methylpiperazin-1-yl)-6-[2-(3-phenylpropanoyl)-1,2,3,4-tetrahydroisoquinolin-7-yl]pyrimidin-2-amine] | 0.099 µM
CC(C(=O)N1CCc2ccc(-c3cc(N4CCN(C)CC4)nc(N)n3)cc2C1)C1CCCCC1 (stereo not shown) [Example 102, 4-[2-(2-Cyclohexylpropanoyl)-1,2,3,4-tetrahydroisoquinolin-7-yl]-6-(4-methylpiperazin-1-yl)pyrimidin-2-amine] | 0.083 µM
CN1CCN(c2cc(-c3ccc4c(c3)CN(C(=O)N3CCC(c5ccccc5)CC3)CC4)nc(N)n2)CC1 [Example 103, 4-(4-Methylpiperazin-1-yl)-6-{2-[(4-phenylpiperidin-1-yl)carbonyl]-1,2,3,4-tetrahydroisoquinolin-7-yl}pyrimidin-2-amine] | 0.084 µM
CN1CCN(c2cc(-c3ccc4c(c3)CN(C(=O)N3CCC(F)(F)CC3)CC4)nc(N)n2)CC1 [Example 104, 4-{2-[(4,4-Difluoropiperidin-1-yl)carbonyl]-1,2,3,4-tetrahydroisoquinolin-7-yl}-6-(4-methylpiperazin-1-yl)pyrimidin-2-amine] | 0.259 µM
CN1CCN(c2cc(-c3ccc4c(c3)CN(C(=O)C3CCCCC3)CC4)nc(N)n2)CC1 [Example 105, 4-[2-(Cyclohexylcarbonyl)-1,2,3,4-tetrahydroisoquinolin-7-yl]-6-(4-methylpiperazin-1-yl)pyrimidin-2-amine] | 0.081 µM
CN1CCN(c2cc(-c3ccc4c(c3)CN(C(=O)CC3CC3)CC4)nc(N)n2)CC1 [Example 106, 4-[2-(Cyclopropylacetyl)-1,2,3,4-tetrahydroisoquinolin-7-yl]-6-(4-methylpiperazin-1-yl)pyrimidin-2-amine] | 0.069 µM
CN1CCN(c2cc(-c3ccc4c(c3)CN(C(=O)Cc3ccc(C#N)cc3)CC4)nc(N)n2)CC1 [Example 107, 4-{2-[7-[2-Amino-6-(4-methylpiperazin-1-yl)pyrimidin-4-yl]-3,4-dihydroisoquinolin-2(1H)-yl]-2-oxoethyl}benzonitrile] | 0.034 µM
CN1CCN(c2cc(-c3ccc4c(c3)CN(C(=O)Cc3ccc(Cl)nc3)CC4)nc(N)n2)CC1 [Example 108, 4-{2-[(6-Chloropyridin-3-yl)acetyl]-1,2,3,4-tetrahydroisoquinolin-7-yl}-6-(4-methylpiperazin-1-yl)pyrimidin-2-amine] | 0.033 µM

SMILES | IC50
CN1CCN(c2cc(-c3ccc4c(c3)CN(C(=O)CC3CCC3)CC4)nc(N)n2)CC1 [Example 109, 4-[2-(Cyclobutylacetyl)-1,2,3,4-tetrahydroisoquinolin-7-yl]-6-(4-methylpiperazin-1-yl)pyrimidin-2-amine] | 0.0096 µM
CN1CCN(c2cc(-c3ccc4c(c3)CN(C(=O)CC3CCOCC3)CC4)nc(N)n2)CC1 [Example 110, 4-(4-Methylpiperazin-1-yl)-6-[2-(tetrahydro-2H-pyran-4-ylacetyl)-1,2,3,4-tetrahydroisoquinolin-7-yl]pyrimidin-2-amine] | 0.086 µM
CCC(C)CC(=O)N1CCc2ccc(-c3cc(N4CCN(C)CC4)nc(N)n3)cc2C1 (stereo not shown) [Example 111, 4-[2-(3-Methylpentanoyl)-1,2,3,4-tetrahydroisoquinolin-7-yl]-6-(4-methylpiperazin-1-yl)pyrimidin-2-amine] | 0.0095 µM
CN1CCN(c2cc(-c3ccc4c(c3)CN(C(=O)Cn3cccn3)CC4)nc(N)n2)CC1 [Example 112, 4-(4-Methylpiperazin-1-yl)-6-[2-(1H-pyrazol-1-ylacetyl)-1,2,3,4-tetrahydroisoquinolin-7-yl]pyrimidin-2-amine] | 0.337 µM
COC(=O)NC(C)CC(=O)N1CCc2ccc(-c3cc(N4CCN(C)CC4)nc(N)n3)cc2C1 (stereo not shown) [Example 113, Methyl{3-[7-[2-amino-6-(4-methylpiperazin-1-yl)pyrimidin-4-yl]-3,4-dihydroisoquinolin-2(1H)-yl]-1-methyl-3-oxopropyl}carbamate] | 0.147 µM
COC(=O)NC(CC(=O)N1CCc2ccc(-c3cc(N4CCN(C)CC4)nc(N)n3)cc2C1)C1CCCCC1 (stereo not shown) [Example 114, Methyl{3-[7-[2-amino-6-(4-methylpiperazin-1-yl)pyrimidin-4-yl]-3,4-dihydroisoquinolin-2(1H)-yl]-1-cyclohexyl-3-oxopropyl}carbamate] | 0.109 µM
COC(=O)N1CCC(OC(=O)N2CCc3ccc(-c4cc(N5CCN(C)CC5)nc(N)n4)cc3C2)CC1 [Example 115, 1-(Methoxycarbonyl)piperidin-4-yl 7-[2-amino-6-(4-methylpiperazin-1-yl)pyrimidin-4-yl]-3,4-dihydroisoquinoline-2(1H)-carboxylate] | 0.033 µM
CCOC(=O)N1CCC(OC(=O)N2CCc3ccc(-c4cc(N5CCN(C)CC5)nc(N)n4)cc3C2)CC1 [Example 116, 1-(Ethoxycarbonyl)piperidin-4-yl 7-[2-amino-6-(4-methylpiperazin-1-yl)pyrimidin-4-yl]-3,4-dihydroisoquinoline-2(1H)-carboxylate] | 0.038 µM
CN1CCN(c2cc(-c3ccc4c(c3)CN(C(=O)NC3(C(F)(F)F)CC3)CC4)nc(N)n2)CC1 [Example 117, 7-[2-amino-6-(4-methylpiperazin-1-yl)pyrimidin-4-yl]-N-[1-(trifluoromethyl)cyclopropyl]-3,4-dihydroisoquinoline-2(1H)-carboxamide] | 0.183 µM
COC(=O)N1CCC(CC(=O)N2CCc3ccc(-c4cc(N5CCN(C)CC5)nc(N)n4)cc3C2)C1 (stereo not shown) [Example 118, Methyl 3-{2-[7-[2-amino-6-(4-methylpiperazin-1-yl)pyrimidin-4-yl]-3,4-dihydroisoquinolin-2(1H)-yl]-2-oxoethyl}pyrrolidine-1-carboxylate] | 0.178 µM
CC(C)OC(=O)N1CCC(CC(=O)N2CCc3ccc(-c4cc(N5CCN(C)CC5)nc(N)n4)cc3C2)C1 (stereo not shown) [Example 119, Isopropyl 3-{2-[7-[2-amino-6-(4-methylpiperazin-1-yl)pyrimidin-4-yl]-3,4-dihydroisoquinolin-2(1H)-yl]-2-oxoethyl}pyrrolidine-1-carboxylate] | 0.07 µM
CN1CCN(c2cc(-c3ccc4c(c3)CN(C(=O)CC3(C#N)CCC3)CC4)nc(N)n2)CC1 [Example 120, 1-{2-[7-[2-Amino-6-(4-methylpiperazin-1-yl)pyrimidin-4-yl]-3,4-dihydroisoquinolin-2(1)-yl]-2-oxoethyl}cyclobutanecarbonitrile] | 0.034 µM
CN1CCN(c2cc(-c3ccc4c(c3)CN(C(=O)CC(C)(C)C#N)CC4)nc(N)n2)CC1 [Example 121, 4-[7-[2-Amino-6-(4-methylpiperazin-1-yl)pyrimidin-4-yl]-3,4-dihydroisoquinolin-2(1H)-yl]-2,2-dimethyl-4-oxobutanenitrile] | 0.039 µM
CN1CCN(c2cc(-c3ccc4c(c3)CN(C(=O)CC3(C#N)CCCC3)CC4)nc(N)n2)CC1 [Example 122, 1-{2-[7-[2-Amino-6-(4-methylpiperazin-1-yl)pyrimidin-4-yl]-3,4-dihydroisoquinolin-2(1H)-yl]-2-oxoethyl}cyclopentanecarbonitrile] | 0.022 µM
CN1CCN(c2cc(-c3ccc4c(c3)CN(C(=O)CC(C)(C#N)C3CC3)CC4)nc(N)n2)CC1 (stereo not shown) [Example 123, 4-[7-[2-Amino-6-(4-methylpiperazin-1-yl)pyrimidin-4-yl]-3,4-dihydroisoquinolin-2(1H)-yl]-2-cyclopropyl-2-methyl-4-oxobutanenitrile] | 0.105 µM
